Assay results taken from ChEMBL document CHEMBL1201862, “PubChem BioAssay data set” (2004).
Calls of active or inactive are those of the source.

Legend:
Streptokinase A = biological target: T1, Streptokinase A (Streptococcus pyogenes serotype M1, UniProt P10520); test: viability-normalized secreted streptokinase activity reduction – plasminogen activation absorbance, OD405, dose response (AID 1914); type: functional, Streptococcus pyogenes M1 GAS;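 also: secreted streptokinase activity via plasminogen activation per viability signal from cell pellet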
T1 sequence (P10520 whole entry): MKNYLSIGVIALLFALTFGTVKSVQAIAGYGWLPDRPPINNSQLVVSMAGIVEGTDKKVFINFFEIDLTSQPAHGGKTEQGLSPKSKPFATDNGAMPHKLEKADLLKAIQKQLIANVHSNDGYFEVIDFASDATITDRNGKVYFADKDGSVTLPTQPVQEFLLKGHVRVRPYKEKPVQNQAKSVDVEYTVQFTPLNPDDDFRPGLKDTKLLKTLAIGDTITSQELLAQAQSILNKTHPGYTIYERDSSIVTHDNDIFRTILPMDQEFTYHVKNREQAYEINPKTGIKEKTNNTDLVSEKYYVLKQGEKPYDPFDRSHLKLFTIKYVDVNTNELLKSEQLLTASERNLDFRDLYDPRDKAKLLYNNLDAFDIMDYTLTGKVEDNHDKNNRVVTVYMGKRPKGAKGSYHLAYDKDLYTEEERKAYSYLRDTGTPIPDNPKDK

Streptococcus = test: GAS UMAA2166 growth inhibition – luminescence, BacTiterGlo, counter-screen for streptokinase expression inhibitor project, dose response (AID 1915); type: functional, organism-based;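 also: potency for reduction of bacterial viability or growth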
[1] = biological target: T2, Sentrin-specific protease 7 (Homo sapiens, UniProt Q9BQF6); type: functional;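 also: Luminescence-based dose-response confirmation of ultra-high-throughput screening hits, measuring inhibition of SENP7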
T2 sequence (Q9BQF6 whole entry): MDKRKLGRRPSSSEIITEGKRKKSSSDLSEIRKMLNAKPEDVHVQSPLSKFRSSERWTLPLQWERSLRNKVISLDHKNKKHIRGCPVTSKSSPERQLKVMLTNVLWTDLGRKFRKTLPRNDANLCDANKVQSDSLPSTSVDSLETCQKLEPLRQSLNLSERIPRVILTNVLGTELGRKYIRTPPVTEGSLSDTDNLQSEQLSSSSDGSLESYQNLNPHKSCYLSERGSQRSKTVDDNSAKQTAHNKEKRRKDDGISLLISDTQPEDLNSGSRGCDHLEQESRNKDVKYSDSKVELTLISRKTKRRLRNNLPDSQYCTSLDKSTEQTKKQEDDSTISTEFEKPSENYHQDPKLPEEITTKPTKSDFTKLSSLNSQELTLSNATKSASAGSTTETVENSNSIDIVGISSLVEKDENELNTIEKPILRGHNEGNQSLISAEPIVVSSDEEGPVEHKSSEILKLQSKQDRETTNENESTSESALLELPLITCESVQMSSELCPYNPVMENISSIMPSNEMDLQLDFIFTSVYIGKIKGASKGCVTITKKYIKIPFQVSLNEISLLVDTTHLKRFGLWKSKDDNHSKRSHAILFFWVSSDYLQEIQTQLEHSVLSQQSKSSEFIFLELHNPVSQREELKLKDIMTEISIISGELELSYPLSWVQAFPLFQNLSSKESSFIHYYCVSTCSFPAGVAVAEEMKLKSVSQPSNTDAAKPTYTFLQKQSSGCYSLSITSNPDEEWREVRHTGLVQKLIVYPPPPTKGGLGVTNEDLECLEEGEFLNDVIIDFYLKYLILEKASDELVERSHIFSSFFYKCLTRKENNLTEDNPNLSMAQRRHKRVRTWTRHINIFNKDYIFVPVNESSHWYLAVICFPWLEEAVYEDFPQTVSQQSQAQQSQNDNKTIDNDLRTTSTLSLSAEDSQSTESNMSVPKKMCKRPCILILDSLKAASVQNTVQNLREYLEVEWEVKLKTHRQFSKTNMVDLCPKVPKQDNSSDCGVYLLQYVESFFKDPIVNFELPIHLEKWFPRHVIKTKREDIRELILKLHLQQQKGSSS

[2] = biological target: T3, Sentrin-specific protease 6 (Homo sapiens, UniProt Q9GZR1); type: functional;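 also: Luminescence-based dose-response confirmatory assay of SENP6 inhibition, following up an ultra-high-throughput screen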
T3 sequence (Q9GZR1 whole entry): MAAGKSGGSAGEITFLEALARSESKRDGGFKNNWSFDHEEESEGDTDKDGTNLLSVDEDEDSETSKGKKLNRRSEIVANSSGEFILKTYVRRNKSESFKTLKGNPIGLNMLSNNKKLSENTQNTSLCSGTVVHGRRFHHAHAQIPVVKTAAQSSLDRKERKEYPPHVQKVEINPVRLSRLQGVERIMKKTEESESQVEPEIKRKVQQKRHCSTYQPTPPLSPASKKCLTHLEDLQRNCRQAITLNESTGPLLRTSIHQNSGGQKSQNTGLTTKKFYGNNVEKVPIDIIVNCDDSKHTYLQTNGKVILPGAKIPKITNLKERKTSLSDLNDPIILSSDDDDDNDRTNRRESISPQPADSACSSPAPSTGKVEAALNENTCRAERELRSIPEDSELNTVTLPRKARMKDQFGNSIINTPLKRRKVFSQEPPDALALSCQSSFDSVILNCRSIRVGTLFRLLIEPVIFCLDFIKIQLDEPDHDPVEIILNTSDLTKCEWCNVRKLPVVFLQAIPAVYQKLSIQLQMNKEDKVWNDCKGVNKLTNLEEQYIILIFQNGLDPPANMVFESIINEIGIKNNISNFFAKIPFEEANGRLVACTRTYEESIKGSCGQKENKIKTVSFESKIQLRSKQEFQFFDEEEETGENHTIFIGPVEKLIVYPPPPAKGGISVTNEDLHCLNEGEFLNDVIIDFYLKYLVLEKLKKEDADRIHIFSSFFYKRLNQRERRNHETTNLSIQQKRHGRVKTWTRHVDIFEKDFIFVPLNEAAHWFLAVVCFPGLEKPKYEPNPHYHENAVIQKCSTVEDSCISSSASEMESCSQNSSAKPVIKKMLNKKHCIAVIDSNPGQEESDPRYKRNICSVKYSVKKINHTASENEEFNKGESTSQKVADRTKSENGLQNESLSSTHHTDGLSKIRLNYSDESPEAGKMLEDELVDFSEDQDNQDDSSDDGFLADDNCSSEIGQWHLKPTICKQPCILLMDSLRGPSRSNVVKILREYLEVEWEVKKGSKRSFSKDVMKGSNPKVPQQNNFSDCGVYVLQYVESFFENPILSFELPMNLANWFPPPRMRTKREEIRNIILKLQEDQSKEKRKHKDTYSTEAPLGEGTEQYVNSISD

[3] = biological target: T4, Sentrin-specific protease 8 (Homo sapiens, UniProt Q96LD8); type: functional;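 also: luminescence read-out of SENP8 inhibition, dose-response confirmation following an ultra-high-throughput screen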
T4 sequence (Q96LD8 whole entry): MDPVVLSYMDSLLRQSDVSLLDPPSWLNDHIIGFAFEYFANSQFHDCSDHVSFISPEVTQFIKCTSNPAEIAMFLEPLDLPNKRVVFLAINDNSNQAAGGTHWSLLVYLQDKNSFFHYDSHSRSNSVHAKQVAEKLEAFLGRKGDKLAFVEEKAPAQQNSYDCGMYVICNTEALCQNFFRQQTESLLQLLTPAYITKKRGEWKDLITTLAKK

[4] = biological target: Tyrosyl-DNA phosphodiesterase 2 (Homo sapiens, UniProt O95551); test: potency against TDP2 phosphodiesterase activity – biochemical, epi absorbance, IC50, dose response (AID 743297)
Chain of Tyrosyl-DNA phosphodiesterase 2 (O95551 whole entry): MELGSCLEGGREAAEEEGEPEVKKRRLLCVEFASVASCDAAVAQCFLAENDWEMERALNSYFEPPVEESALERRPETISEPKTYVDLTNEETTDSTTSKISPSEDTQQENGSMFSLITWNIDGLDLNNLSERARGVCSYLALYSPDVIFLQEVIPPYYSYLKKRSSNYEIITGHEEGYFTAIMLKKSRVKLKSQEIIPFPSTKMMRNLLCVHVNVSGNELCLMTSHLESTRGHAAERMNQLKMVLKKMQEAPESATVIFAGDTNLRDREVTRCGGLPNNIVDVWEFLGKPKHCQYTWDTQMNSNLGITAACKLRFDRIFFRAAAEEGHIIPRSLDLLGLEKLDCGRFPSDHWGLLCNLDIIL

`Clc1ccc(C2=CSC3=Nc4cccc5cccc(c45)N23)cc1` was tested. Which EC50 (Streptokinase A) did it give?
Its EC50 is > 150 µM (not active).

What about the EC50 (Streptococcus) of the same compound?
The EC50 was 17.1 µM (active).

And the IC50 [1]?
Its IC50 is 5.65 µM (active).

And the IC50 [2]?
Its IC50 is 1.89 µM (active).

And the IC50 [3]?
Its IC50 is 2.04 µM (active).

And the IC50 [4]?
Its IC50 is > 128 µM (inactive).
